Measurements as given in US6355630B1, “Estra-1,3,5(10)-triene-7α-thioethers” (priority 1997, dated 2002).
Like-named read-outs stand apart in the source and are kept apart here.

Legend:
rat uterus = experiment: Rat uterotrophic/antiuterotrophic test procedure; format: in vivo; conditions: for Uterine wet weight: daily ip, 4-day immature rat
Description: Rat Uterotrophic/Antiuterotrophic Test Procedure
The estrogenic and antiestrogenic properties of the compounds were determined in a 4-day immature rat uterotrophic assay (as described previously by L. J. Black and R. L. Goode, Life Sciences, 26, 1453 (1980)). Immature Sprague-Dawley rats (female, 18 days old) were tested in groups of six. […] On day 4 the animals were sacrificed by CO2 asphyxiation and their uteri were removed and stripped of excess lipid, any fluid removed and the wet weight determined. A small section of one horn was submitted for histology and the remainder used to isolate total RNA in order to evaluate complement component 3 gene expression.
Representative compounds of this invention were evaluated in the rat uterotrophic/antiuterotrophic assay to determine their in vivo effects on the rat uterus.

human estrogen receptor = target: T1, human estrogen receptor (Homo sapiens, UniProt P03372); experiment: In vitro estrogen receptor binding test procedure ([3H]-17β-estradiol competition)
T1 construct: expressed in transfected cells; host or cells: Chinese Hamster ovary (CHO) cells; ribosome-free cytosol
T1 sequence (P03372 1-595): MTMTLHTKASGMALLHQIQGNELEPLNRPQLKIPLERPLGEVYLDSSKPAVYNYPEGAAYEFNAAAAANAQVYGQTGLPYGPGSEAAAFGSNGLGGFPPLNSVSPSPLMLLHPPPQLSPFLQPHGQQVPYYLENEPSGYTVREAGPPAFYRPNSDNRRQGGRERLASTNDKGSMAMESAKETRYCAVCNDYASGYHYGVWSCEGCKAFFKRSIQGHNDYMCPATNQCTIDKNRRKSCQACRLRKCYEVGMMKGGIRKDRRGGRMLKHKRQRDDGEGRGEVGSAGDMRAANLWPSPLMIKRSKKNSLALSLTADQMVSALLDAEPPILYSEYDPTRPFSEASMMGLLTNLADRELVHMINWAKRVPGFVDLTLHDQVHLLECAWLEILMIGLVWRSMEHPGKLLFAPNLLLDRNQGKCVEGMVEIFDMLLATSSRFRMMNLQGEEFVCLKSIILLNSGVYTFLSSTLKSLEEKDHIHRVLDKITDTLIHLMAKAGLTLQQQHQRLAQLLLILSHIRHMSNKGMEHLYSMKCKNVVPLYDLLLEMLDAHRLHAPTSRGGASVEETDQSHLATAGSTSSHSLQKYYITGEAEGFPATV
Description: In vitro Estrogen Receptor Binding Test Procedure
Chinese Hamster ovary (CHO) cells overexpressing the estrogen receptor were grown in […] dishes in DMEM+10% dextran coated charcoal, stripped fetal bovine serum. The plates were washed twice with PBS and once with 10 mM Tris-HCl, pH 7.4, 1 mM EDTA. Cells were harvested by scraping the surface and then the cell suspension was placed on ice. Cells were disrupted with a hand-held motorized tissue grinder using two, 10-second bursts. The crude preparation was centrifuged at 12,000 g for 20 minutes followed by a 60 minute spin at 100,000 G to produce a ribosome free cytosol. The cytosol was then frozen and stored at −80° C. Protein concentration of the cytosol was estimated using the BCA assay with reference standard protein.
Binding Test Procedure Conditions
100 uG/100 uL of the receptor preparation was aliquoted per well. […] The plate was incubated at room temperature for 2.5 h. At the end of this incubation period 150 uL of ice-cold dextran coated charcoal (5% activated charcoal coated with 0.05% 69K dextran) was added to each well and the plate was immediately centrifuged at 99 g for 5 minutes at 4° C. 200 uL of the supernatant solution was then removed for scintillation counting. Samples were counted to 2% or 10 minutes, whichever occurs first. […] Also, wells containing radioactivity but no cytosol were processed with charcoal to estimate unremovable DPM of [^3H] […] 96-well plates were used because they have proven to bind the least amount of estradiol.
Counts per minute (CPM) of radioactivity were automatically converted to disintegrated per minute (DPM) by the Beckman LS 7500 Scintillation Counter using a set of quenched standards to generate a H# for each sample. To calculate the % of estradiol binding in the presence of 100 or 500 fold competitor the following formula was applied:
((DPM sample−DPM not removed by charcoal/(DPM estradiol−DPM not removed by charcoal))×100%=% of estradiol binding
For the generation of IC50 curves, % binding is plotted vs compound. […] Values are reported as IC50 values. […] For a description of these methods, see Hulme, E. C., ed. 1992. Receptor-Ligand Interactions: A Practical Approach. IRL Press, New York.(see especially chapter 8).
Compounds were tested for their ability to displace estradiol in a human ER-receptor preparation as described above.

Ishikawa uterine cells = experiment: Ishikawa cell alkaline phosphatase test procedure; format: cell-based, human; conditions: for Alkaline phosphatase activity, percent of response related to 1 nM 17β-estradiol: 48 h; for Behaviour in the uterine cell line (agonist/antagonist): in words, from Table 2
Description: Ishikawa Cell Alkaline Phosphatase Test Procedure
Cell Maintenance and Treatment
Ishikawa cells were maintained in DMEM/F12 (50%:50%) containing phenol red+10% fetal bovine serum and the medium was supplemented with 2 mM Glutamax, 1% Pen/Strap and 1 mM sodium pyruvate. Five days prior to the beginning of each evaluation (treatment of cells) the medium was changed to phenol red-free DMEM/F12+10% dextran coated charcoal stripped serum. On the day before treatment, cells were harvested using 0.5% trypsin/EDTA and plated at a density of 5×10^4 cells/well in 96-well tissue culture plates. […] Cells were treated for 48 h prior to assay. […] Sample population for at each dose was n=8.
Alkaline Phosphatase Test Procedure
At the end of 48 h the media was aspirated and cells were washed three times with phosphate buffered saline (PBS); 50 μL of lysis buffer (0.1 M Tris-HCl, pH 9.8, 0.2% Triton X-100) was added to each well. Plates were placed at −80° C. for a minimum of 15 minutes. Plates were thawed at 37° C. followed by the addition of 150 μL of 0.1 M Tris-HCl, pH 9.8, containing 4 mM para-nitrophenylphosphate (pNPP) to each well (final concentration, 3 mM pNPP).
Absorbance and slope calculations were made using the KineticCalc Application program (Bio-Tek Instruments, Inc., Winooski, Vt.). Results are expressed as the mean +/−S.D. of the rate of enzyme reaction (slope) averaged over the linear portion of the kinetic reaction curve (optical density readings every 5 minutes for 30 minutes absorbance reading).
The four compounds were used as reference standards:
A description of these methods is described by Holinka, C. F., Hata, H., Kuramoto, H. and Gurpide, E. (1986) Effects of steroid hormones and antisteroids on alkaline phosphatase activity in human endometrial cancer cells (Ishikawa Line). Cancer Research, 46:2771-2774, and by Littlefield, B. A., Gurpide, E., Markiewicz, L., McKinley, B. and Hochberg, R. B. (1990) A simple and sensitive microtiter plate estrogen bioassay based on stimulation alkaline phosphatase in Ishikawa cells; Estrogen action of D5 adrenal steroids. Endocrinology, 6:2757-2762.

[1] = 1 uM compound + 1 nM E2, antagonist mode

Compound | Uterine wet weight (rat uterus; 1 ug Cpd) [mg] | Uterine wet weight (rat uterus; 100 ug Cpd) [mg] | IC50 (human estrogen receptor) [nM] | Alkaline phosphatase activity, percent of response related to 1 nM 17β-estradiol (Ishikawa uterine cells; 0.01 uM compound, agonist mode) [%] | Alkaline phosphatase activity, percent of response related to 1 nM 17β-estradiol (Ishikawa uterine cells; 0.1 uM compound, agonist mode) [%] | Alkaline phosphatase activity, percent of response related to 1 nM 17β-estradiol (Ishikawa uterine cells; [1]) [%] | Alkaline phosphatase activity, percent of response related to 1 nM 17β-estradiol (Ishikawa uterine cells; 1 uM compound, agonist mode) [%] | IC50 (human estrogen receptor; read-out: Receptor IC50) [nM] | Behaviour in the uterine cell line (agonist/antagonist) (Ishikawa uterine cells) | Uterine wet weight (rat uterus; 1 ug E2 + 100 ug Cpd) [mg] | Effect on rat uterus (agonist/antagonist) (rat uterus; in words, dosed alone or with 17β-estradiol)
CCCCN(C)C(=O)CCCCCCCCCCS[C@@H]1C(=O)c2cc(O)ccc2[C@H]2CC[C@]3(C)[C@@H](O)CC[C@H]3[C@H]12 [Example 16, (7α,17β) 7-[10-(N-Butyl-N-methyl-carbamoyl)-decyl]thio-3,17-dihydroxy-estra-1,3,5(10)-triene-6-one] | 41.3 | 72.5 | 300 | 7 | 22 | 66 | 42 |  |  |  | 
CCCCN(C)C(=O)CCCCCCCCCCS[C@H]1[C@@H]2[C@H](CC[C@]3(C)[C@@H](O)CC[C@@H]23)c2ccc(O)cc2[C@H]1O [Example 17, (6α,7α,17β) 7-[10-(N-Butyl-N-methyl-carbamoyl)-decyl]thio-estra-1,3,5(10)-triene-3,6,17-triol] | 36.5 | 64.2 |  | 0 | 0 | 28 | 1 | 400 | pure estrogen antagonists |  | 
CCCCN(C)C(=O)CCCCCCCCCCS[C@@H]1Cc2cc(O)ccc2[C@H]2CC[C@]3(C)[C@@H](O)CC[C@H]3[C@@H]21 [Example 18, (7α,17β) 7-[10-(N-Butyl-N-methyl-carbamoyl)-decyl]thio-estra-1,3,5(10)-triene-3,17-diol] | 31.8 | 41.6 | 100 | 0 | 0 | 1 | 0 |  | pure estrogen antagonists | 46.0 | very efficacious antagonist
